Data reported in patent publication US11110102B2, “Antifungal agents used in combination” (Scynexis, Inc., priority 2017, dated 2021).
“And” between values parts separate entries of the source, which are not always exact repeats. Identical values can stand only once.

Key:
Assay in all cases: Checkerboard combination MIC testing
Format in all cases: cell-based, Aspergillus fumigatus
A. fumigatus MRL #28500 = conditions: read at 48 hours, duplicate
Excerpt: (§1) To determine the type of interaction between a representative compound of the enfumafungin derivatives (SCY-078) with several antifungal agents against Aspergillus fumigatus, the most frequent mold causing invasive disease in humans, the checkerboard method was used. The citrate salt of the compound was used in the studies.
(§2) The checkerboard method involves the determination of percent growth inhibition of fungal cells in the presence of different combinations of drugs. Percent growth inhibition is calculated relative to growth in control wells which contain only cells and no drug. The assay was performed in 96-well microplates in which each row and each column contained twofold serial dilutions of drug A and drug B at concentrations ranging from 0 to slightly higher than their minimum inhibitory concentration (MIC). […] Then the inoculum was added to each well and the growth was evaluated after 48 hrs incubation to determine the first well in which growth was inhibited. The checkerboard-based determination of MICs of antifungal agents in combination was followed by further analysis employing the nonparametric fractional inhibitory concentration index (FICI), which is defined by the following equation:
(§3) [formula] where MIC-A and MIC-B are the MICs of drugs A and B, respectively.
(§4) Each drug was initially diluted in either sterile, distilled water or in DMSO, depending on whether the drug was water-soluble or water-insoluble, respectively.
(§5) Stock solution of SCY-078 was prepared in DMSO at 200 times the concentration desired for use in the drug plates. Serial dilutions of stock solution were conducted in DMSO to obtain eleven 2-fold dilutions of the drug. The SCY-078 solution was then diluted to 4 times the desired concentration in RPMI-1640 medium so that the DMSO would not limit growth of the organism and so that the quantity of DMSO was the same for every dilution.
(§6) Two 96-well plates are needed to conduct a combination test. Using a multichannel pipette, 50 μl of the lowest concentration of the first drug (Drug A) was added to each well of column 1 of the first plate (plate A) and column 1 of the second plate (plate B; rows A-D). Then, 50 μl of the next highest working dilution of Drug A was added to each well in column 2, continuing with dilutions until all columns 1-11 were filled. Column 12 was left empty. 50 μl of the lowest concentration of Drug B was added to each well in Row D of plate B. 50 μl of the next highest working dilution of Drug B was added to each well in row C of plate B, continuing with dilutions until all rows through row B of plate A were filled.
(§7) Following the above, 100 μl of organism inoculum was added to every well. The plates were then incubated for 48 hours and visually read after incubation.
(§8) The objective of the study was to determine whether the combination of SCY-078 with voriconazole, isavuconazole, or amphotericin B would result in a combined in vitro antifungal activity exceeding the sum of the activities of each drug alone. Combination MIC testing was performed using the checkerboard assay described above.
A. fumigatus 28500 has a CYP51 mutation at F46Y.
(§9) Initial MIC determinations of the individual antifungals were performed according to the Clinical and Laboratory Standards Institute (CLSI) M38-A2 standard for the susceptibility testing of filamentous fungi.
(§10) Combination MIC testing was performed using a checkerboard test method according to the Center for Medical Mycology SOP A11.3. The checkerboard combination test method is a modification of the microdilution antifungal susceptibility test wherein two test compounds are combined in varying concentrations to determine whether they have synergistic, antagonistic, or no effect on the respective MIC values.
Antifungals were serially diluted two-fold in RPMI medium to produce eleven concentrations each and were combined in wells of a microtiter plate. Two rows consisting of serial dilutions of each individual drug were included. […]

A. fumigatus MRL #28378 = conditions: A. fumigatus MRL 28378 (wild-type), read at 48 hours, duplicate
Excerpt: as §1, §2, §3, §4, §5, §6, §7, §8, §9, §10
(§11) Antifungals were serially diluted two-fold in RPMI medium to produce eleven concentrations each and were combined in wells of a microtiter plate. Two rows consisting of serial dilutions of each individual drug were included. All combination testing was conducted in duplicate. […]

A. fumigatus MRL #28401 = conditions: A. fumigatus MRL 28401 (wild-type), read at 48 hours, duplicate
Excerpt: as §1, §2, §3, §4, §5, §6, §7, §8, §9, §10, §11

A. fumigatus MRL #28383 = conditions: A. fumigatus MRL 28383 (azole-resistant), read at 48 hours, duplicate
Excerpt: as §1, §2, §3, §4, §5, §6, §7, §8, §9, §10, §11

A. fumigatus MRL #20438 = conditions: A. fumigatus MRL 20438 (wild-type), read at 48 hours, duplicate
Excerpt: as §1, §2, §3, §4, §5, §6, §7, §8, §9, §10, §11

A. fumigatus MRL #28382 = conditions: A. fumigatus MRL 28382 (wild-type), read at 48 hours, duplicate
Excerpt: as §1, §2, §3, §4, §5, §6, §7, §8, §9, §10, §11

[1] = SCY-078 combined with amphotericin B
[2] = drug alone, SCY-078/amphotericin B test
[3] = Aspergillus fumigatus, SCY078, 48 h, drug alone, SCY-078/voriconazole test, read-out: MIC Alone
[4] = SCY-078 combined with voriconazole

`C[C@@H]1[C@H](O)[C@@H](C)/C=C/C=C/C=C/C=C/C=C/C=C/C=C/[C@H](O[C@@H]2O[C@H](C)[C@@H](O)[C@H](N)[C@@H]2O)C[C@@H]2O[C@](O)(C[C@@H](O)C[C@@H](O)[C@H](O)CC[C@@H](O)C[C@@H](O)CC(=O)O[C@H]1C)C[C@H](O)[C@H]2C(=O)O` [Amphotericin B, amphotericin B] was tested, and the “MIC in Combination” value (A. fumigatus MRL #28500; A. fumigatus MRL 28500 (azole-resistant, CYP51 F46Y), SCY-078 combined with amphotericin B) was 1 µg/mL, the “MIC Alone” value (A. fumigatus MRL #28500; A. fumigatus MRL 28500 (azole-resistant, CYP51 F46Y), drug alone, SCY-078/amphotericin B test) was 4 µg/mL and the “MIC in Combination” value (A. fumigatus MRL #28378; [1]) was 0.5 µg/mL. The “MIC Alone” value (A. fumigatus MRL #28378; [2]) was 2 µg/mL, the “MIC in Combination” value (A. fumigatus MRL #28401; [1]) was 1 µg/mL and 0.5 µg/mL and the “MIC Alone” value (A. fumigatus MRL #28401; [2]) was 4 µg/mL. For the same compound, the “MIC in Combination” value (A. fumigatus MRL #28383; [1]) was 4 µg/mL and 2 µg/mL, the “MIC Alone” value (A. fumigatus MRL #28383; [2]) was 4 µg/mL and 2 µg/mL and the “MIC in Combination” value (A. fumigatus MRL #20438; [1]) was 0.5 µg/mL. The “MIC Alone” value (A. fumigatus MRL #20438; [2]) was 4 µg/mL, the “MIC in Combination” value (A. fumigatus MRL #28382; [1]) was 1 µg/mL and 0.5 µg/mL and the “MIC Alone” value (A. fumigatus MRL #28382; [2]) was 4 µg/mL.
In the case of `C[C@@H](c1ncncc1F)[C@](O)(Cn1cncn1)c1ccc(F)cc1F` [Voriconazole, voriconazole], the “MIC in Combination” value (A. fumigatus MRL #28500; A. fumigatus MRL 28500 (azole-resistant, CYP51 F46Y), SCY-078 combined with voriconazole) is reported as over 16 µg/mL, the MIC (A. fumigatus MRL #28500; Aspergillus fumigatus, SCY078, 48 h, read-out: MIC Alone, A. fumigatus MRL 28500 (azole-resistant, CYP51 F46Y), drug alone, SCY-078/voriconazole test) is reported as over 16 µg/mL and the “MIC Alone” value (A. fumigatus MRL #28378; drug alone, SCY-078/voriconazole test) is reported as 0.25 µg/mL. The MIC (A. fumigatus MRL #28378; [3]) was 0.5 µg/mL, the “MIC in Combination” value (A. fumigatus MRL #28401; [4]) was 0.5 µg/mL and the MIC (A. fumigatus MRL #28401; [3]) was 2 µg/mL. For the same compound, the “MIC in Combination” value (A. fumigatus MRL #28383; [4]) was over 16 µg/mL, the MIC (A. fumigatus MRL #28383; [3]) was over 16 µg/mL and the “MIC in Combination” value (A. fumigatus MRL #20438; [4]) was 0.25 µg/mL. The MIC (A. fumigatus MRL #20438; [3]) was 1 µg/mL, the “MIC in Combination” value (A. fumigatus MRL #28382; [4]) was 0.125 µg/mL and 0.25 µg/mL and the MIC (A. fumigatus MRL #28382; [3]) was 0.5 µg/mL.
